The values that follow come from article PMC10140954, “Thiolactones and Δ^8,9-Pregnene Steroids from the Marine-Derived Fungus Meira sp. 1210CH-42 and Their α-Glucosidase Inhibitory Activity” (Marine Drugs, 2023).

The target in this experiment is α-glucosidase. Nature of the experiment: α-glucosidase inhibition assay (pNPG substrate, absorbance at 405 nm). As to conditions: for IC50: 0.1 M PBS pH 7.4, 37 °C, α-glucosidase 0.2 U/mL, 5 mM pNPG, triplicate, read-out: α-Glucosidase inhibitory activity, IC50 (50% inhibitory concentration). It is filed as biochemical. The procedure: All the assays were carried out under 0.1 M PBS buffer (pH 7.4, Sigma). The samples (10 mM) were dissolved with DMSO (Sigma) and diluted into gradient concentrations with PBS buffer. The pre-reaction mixture consisted of the 130 μL sample with 30 μL α-glucosidase solution (0.2 U/mL, Sigma) and shaken well, then added to a 96-well plate and placed at 37 °C for 10 min in an incubator. Subsequently, 40 μL of 5 mM p-nitrophenyl-α-D-glucopyranoside (pNPG, TCI) was added and further incubated at 37 °C for 20 min. Finally, the α-glucosidase inhibitory activity was determined by measuring the release of […] at 405 nm of the microplate reader. The negative control was prepared by adding PBS buffer instead of the sample in the same way as the test. The blank was prepared by adding PBS buffer instead of pNPG using the same method.

Where only a bound is given, the exact number is not on record here.

Regarding `CC(=O)N[C@@H]1C(=O)SC[C@@H]1C` [Compound 1, 2S-acetamide-3R-methyl-thiolactone], the IC50 is > 400 µM. Where the note is “at a concentration of 400 μM”, the “α-glucosidase inhibitory activity in words” value was “weak inhibitory activity”.
`CC(=O)[C@H]1CC[C@H]2C3=C(CC[C@]12C)[C@@]1(C)CC[C@H](O)C[C@@H]1CC3` [Compound 3, Δ^8,9-3β-hydroxy-5α-17-acetyl steroid]: the IC50 was 280 µM.
As for `CC(=O)C1CCC2C3=C(CCC12C)C1(C)CCC(O)CC1CC3` (stereo not drawn) [Compound 4, Δ^8,9-3α-hydroxy-5α-17-acetyl steroid], the IC50 was determined as 86 µM.
On to `CC(=O)N[C@H]1C(=O)SC[C@@H]1C` [Compound 2, 2R-acetamide-3R-methyl-thiolactone], for which the IC50 worked out at 148 µM.
